Biological target: T1, T1R2/T1R3 taste receptor (Homo sapiens, UniProt Q8TE23)
T1 sequence (Q8TE23 20-839): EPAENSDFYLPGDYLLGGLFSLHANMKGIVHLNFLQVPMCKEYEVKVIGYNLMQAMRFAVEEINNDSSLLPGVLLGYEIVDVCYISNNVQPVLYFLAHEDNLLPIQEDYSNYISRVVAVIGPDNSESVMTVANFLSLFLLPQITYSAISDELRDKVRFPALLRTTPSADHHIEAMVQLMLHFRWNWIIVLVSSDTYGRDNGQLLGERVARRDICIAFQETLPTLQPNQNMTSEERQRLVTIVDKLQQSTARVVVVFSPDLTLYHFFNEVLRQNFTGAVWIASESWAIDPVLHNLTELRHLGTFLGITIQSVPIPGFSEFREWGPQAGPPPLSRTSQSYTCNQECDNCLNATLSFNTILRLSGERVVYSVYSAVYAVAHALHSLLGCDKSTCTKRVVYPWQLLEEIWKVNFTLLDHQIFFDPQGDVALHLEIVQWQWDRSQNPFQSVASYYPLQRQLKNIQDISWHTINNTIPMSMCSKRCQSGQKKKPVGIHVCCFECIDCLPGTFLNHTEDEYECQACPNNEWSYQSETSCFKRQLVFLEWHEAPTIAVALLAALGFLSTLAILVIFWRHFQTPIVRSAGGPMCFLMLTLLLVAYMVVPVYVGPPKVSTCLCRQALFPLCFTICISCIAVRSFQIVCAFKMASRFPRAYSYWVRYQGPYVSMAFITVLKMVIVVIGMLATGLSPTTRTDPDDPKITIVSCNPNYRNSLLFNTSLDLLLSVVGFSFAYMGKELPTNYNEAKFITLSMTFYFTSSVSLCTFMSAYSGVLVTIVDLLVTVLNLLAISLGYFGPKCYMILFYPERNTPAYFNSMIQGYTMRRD
T1 sequence (Q7RTX0 21-852 partner): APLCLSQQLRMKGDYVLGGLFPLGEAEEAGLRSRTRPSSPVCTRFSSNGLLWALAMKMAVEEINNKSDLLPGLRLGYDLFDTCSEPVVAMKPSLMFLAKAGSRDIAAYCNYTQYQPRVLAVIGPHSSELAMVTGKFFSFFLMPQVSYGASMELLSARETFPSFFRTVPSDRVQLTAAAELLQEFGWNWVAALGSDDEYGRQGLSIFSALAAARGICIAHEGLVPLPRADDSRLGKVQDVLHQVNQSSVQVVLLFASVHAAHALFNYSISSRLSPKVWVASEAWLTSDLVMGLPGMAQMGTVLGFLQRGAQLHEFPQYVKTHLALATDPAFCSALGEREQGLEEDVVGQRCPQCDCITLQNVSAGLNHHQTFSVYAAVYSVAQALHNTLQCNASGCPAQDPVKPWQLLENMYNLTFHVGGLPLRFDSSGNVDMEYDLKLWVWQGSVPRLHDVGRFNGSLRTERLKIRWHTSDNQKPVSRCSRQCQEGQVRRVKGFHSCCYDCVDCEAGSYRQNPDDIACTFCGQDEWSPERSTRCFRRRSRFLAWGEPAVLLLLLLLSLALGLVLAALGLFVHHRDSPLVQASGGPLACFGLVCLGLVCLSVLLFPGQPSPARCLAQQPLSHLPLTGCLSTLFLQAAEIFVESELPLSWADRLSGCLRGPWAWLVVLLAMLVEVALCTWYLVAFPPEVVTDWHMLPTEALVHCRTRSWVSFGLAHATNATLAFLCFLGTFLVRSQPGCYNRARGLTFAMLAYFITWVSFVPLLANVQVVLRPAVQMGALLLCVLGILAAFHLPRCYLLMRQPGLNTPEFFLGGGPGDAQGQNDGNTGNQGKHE
Assay: Receptor-based assay: sweetener EC50 alone and with test compound (enhancement ratio)
Type: cell-based
Conditions: for Sucralose Enhancement EC50 Ratio: sweetener sucralose; for Sucrose Enhancement EC50 Ratio: sweetener sucrose; for Fructose Enhancement EC50 Ratio: sweetener fructose
Procedure: Potencies (EC50 values) for the sweeteners sucrose, sucralose, and fructose were measured against the T1R2/T1R3 taste receptor. EC50 was determined using the sweetener alone and in the presence of 3 μM, 10 μM, or 50 μM of test compound. EC50 ratios were calculated by the ratio of potency with and without the test compound. An “A” value indicates an enhancement ratio of greater than 20. A “B” value indicates an enhancement ratio from 10 to 20. A “C” value indicates an enhancement ratio greater than 1 and less than 10.

Row | Structure (SMILES) | Sucralose Enhancement EC50 Ratio (10 μM test compound) | Sucralose Enhancement EC50 Ratio (50 μM test compound) | Sucrose Enhancement EC50 Ratio (3 μM test compound) | Sucrose Enhancement EC50 Ratio (10 μM test compound) | Sucrose Enhancement EC50 Ratio (50 μM test compound) | Fructose Enhancement EC50 Ratio (50 μM test compound) | Fructose Enhancement EC50 Ratio (10 μM test compound)
1 | CC(C)NC(=O)c1ccc(N2CCC[C@H](COc3cccc4c3C(N)=NS(=O)(=O)N4)C2)nc1 [Compound 506] | A (An “A” value indicates an enhancement ratio of greater than 20) | A (An “A” value indicates an enhancement ratio of greater than 20) | C (A “C” value indicates an enhancement ratio greater than 1 and less than 10) | C (A “C” value indicates an enhancement ratio greater than 1 and less than 10) | C (A “C” value indicates an enhancement ratio greater than 1 and less than 10) | – | –
2 | NC1=NS(=O)(=O)Nc2cccc(OC[C@H]3CCCN(c4cccc(C(=O)N5CCCCC5)n4)C3)c21 [Compound 413] | B (A “B” value indicates an enhancement ratio from 10 to 20) | A (An “A” value indicates an enhancement ratio of greater than 20) | C (A “C” value indicates an enhancement ratio greater than 1 and less than 10) | C (A “C” value indicates an enhancement ratio greater than 1 and less than 10) | C (A “C” value indicates an enhancement ratio greater than 1 and less than 10) | C (A “C” value indicates an enhancement ratio greater than 1 and less than 10) | –
3 | CCCNC(=O)c1cccc(N2CCC[C@H](COc3cccc4c3C(N)=NS(=O)(=O)N4)C2)n1 [Compound 403] | A (An “A” value indicates an enhancement ratio of greater than 20) | A (An “A” value indicates an enhancement ratio of greater than 20) | C (A “C” value indicates an enhancement ratio greater than 1 and less than 10) | C (A “C” value indicates an enhancement ratio greater than 1 and less than 10) | C (A “C” value indicates an enhancement ratio greater than 1 and less than 10) | – | C (A “C” value indicates an enhancement ratio greater than 1 and less than 10)
4 | NC1=NS(=O)(=O)Nc2cccc(OC[C@H]3CCCN(c4ccc(C(=O)NCC5CCCCC5)cn4)C3)c21 [Compound 517] | C (A “C” value indicates an enhancement ratio greater than 1 and less than 10) | B (A “B” value indicates an enhancement ratio from 10 to 20) | C (A “C” value indicates an enhancement ratio greater than 1 and less than 10) | C (A “C” value indicates an enhancement ratio greater than 1 and less than 10) | C (A “C” value indicates an enhancement ratio greater than 1 and less than 10) | – | –
5 | CNC(=O)c1cccc(N2CCC[C@H](COc3cccc4c3C(N)=NS(=O)(=O)N4)C2)n1 [Compound 401] | A (An “A” value indicates an enhancement ratio of greater than 20) | A (An “A” value indicates an enhancement ratio of greater than 20) | C (A “C” value indicates an enhancement ratio greater than 1 and less than 10) | B (A “B” value indicates an enhancement ratio from 10 to 20) | C (A “C” value indicates an enhancement ratio greater than 1 and less than 10) | – | –
6 | COc1cc(OC)nc(N2CCC[C@H](COc3cccc4c3C(N)=NS(=O)(=O)N4)C2)n1 [Compound 306] | B (A “B” value indicates an enhancement ratio from 10 to 20) | B (A “B” value indicates an enhancement ratio from 10 to 20) | C (A “C” value indicates an enhancement ratio greater than 1 and less than 10) | C (A “C” value indicates an enhancement ratio greater than 1 and less than 10) | C (A “C” value indicates an enhancement ratio greater than 1 and less than 10) | – | C (A “C” value indicates an enhancement ratio greater than 1 and less than 10)
